Data taken from paper PMC12155096 (International Journal of Molecular Sciences, 2025).
Where a name gives a salt, the structure may show the parent alone. Read-outs that look alike come from different tables or passages of the source.

Columns and labels:
human CYP2C19 [1] = biological target: T1, human CYP2C19 (Homo sapiens, UniProt P33261); experiment: biochemical
[2] = biological target: Photinus pyralis (firefly) luciferase (Photinus pyralis, UniProt P08659); experiment: biochemical; assay type: biochemical
human CYP1A2 [3] = biological target: T2, human CYP1A2 (Homo sapiens, UniProt P05177); experiment: biochemical
T2 sequence (P05177 1-516): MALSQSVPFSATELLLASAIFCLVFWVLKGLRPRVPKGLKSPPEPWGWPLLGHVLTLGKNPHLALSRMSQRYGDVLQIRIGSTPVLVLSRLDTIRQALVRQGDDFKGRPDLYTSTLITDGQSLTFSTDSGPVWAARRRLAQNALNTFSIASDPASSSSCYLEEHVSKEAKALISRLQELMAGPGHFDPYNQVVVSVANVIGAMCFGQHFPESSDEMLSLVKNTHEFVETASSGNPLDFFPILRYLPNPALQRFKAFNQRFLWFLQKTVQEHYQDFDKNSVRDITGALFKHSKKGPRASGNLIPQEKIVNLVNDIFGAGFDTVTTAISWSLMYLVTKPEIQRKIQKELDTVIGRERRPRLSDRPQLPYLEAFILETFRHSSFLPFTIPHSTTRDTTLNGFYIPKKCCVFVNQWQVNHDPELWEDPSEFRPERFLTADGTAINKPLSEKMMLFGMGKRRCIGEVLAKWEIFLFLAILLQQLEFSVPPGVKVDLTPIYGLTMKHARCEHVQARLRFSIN

human CYP2D6 [4] = biological target: T3, human CYP2D6 (Homo sapiens, UniProt P10635); experiment: biochemical
human CYP2C9 [5] = biological target: T4, human CYP2C9 (Homo sapiens, UniProt P11712); conditions: for CYP2C9 Efficacy (in parenthesis): human
human CYP1A2 [6] = biological target: T2, human CYP1A2; conditions: human
CYP3A4 = CYP3A4 (Homo sapiens, UniProt P08684)
human CYP2C19 [7] = biological target: T1, human CYP2C19; conditions: for CYP2C19 Efficacy (in parenthesis): human
human CYP2D6 [8] = biological target: T3, human CYP2D6; conditions: human
human CYP2C9 [9] = biological target: T4, human CYP2C9; experiment: biochemical
[10] = CYP2C19 IC50 (half-maximal inhibitory concentration)
[11] = CYP1A2 IC50 (half-maximal inhibitory concentration)
[12] = CYP2D6 IC50 (half-maximal inhibitory concentration)
[13] = CYP2C9 IC50 (half-maximal inhibitory concentration)

Photinus pyralis (firefly) luciferase, sequence (P08659 whole entry): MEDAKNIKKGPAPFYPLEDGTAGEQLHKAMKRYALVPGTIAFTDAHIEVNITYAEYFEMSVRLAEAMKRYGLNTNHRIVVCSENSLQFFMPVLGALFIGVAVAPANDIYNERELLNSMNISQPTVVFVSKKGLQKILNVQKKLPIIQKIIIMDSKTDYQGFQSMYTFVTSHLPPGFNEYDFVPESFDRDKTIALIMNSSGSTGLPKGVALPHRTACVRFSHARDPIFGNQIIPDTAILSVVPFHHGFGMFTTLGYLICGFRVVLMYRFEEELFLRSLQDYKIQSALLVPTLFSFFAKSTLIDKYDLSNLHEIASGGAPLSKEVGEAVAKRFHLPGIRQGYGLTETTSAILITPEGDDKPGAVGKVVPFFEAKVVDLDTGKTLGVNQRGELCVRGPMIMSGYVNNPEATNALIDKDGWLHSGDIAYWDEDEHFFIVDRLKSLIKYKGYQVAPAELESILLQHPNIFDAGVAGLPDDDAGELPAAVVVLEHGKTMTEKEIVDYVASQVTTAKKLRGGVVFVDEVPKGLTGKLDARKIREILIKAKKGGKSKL
T3 sequence (P10635 whole entry): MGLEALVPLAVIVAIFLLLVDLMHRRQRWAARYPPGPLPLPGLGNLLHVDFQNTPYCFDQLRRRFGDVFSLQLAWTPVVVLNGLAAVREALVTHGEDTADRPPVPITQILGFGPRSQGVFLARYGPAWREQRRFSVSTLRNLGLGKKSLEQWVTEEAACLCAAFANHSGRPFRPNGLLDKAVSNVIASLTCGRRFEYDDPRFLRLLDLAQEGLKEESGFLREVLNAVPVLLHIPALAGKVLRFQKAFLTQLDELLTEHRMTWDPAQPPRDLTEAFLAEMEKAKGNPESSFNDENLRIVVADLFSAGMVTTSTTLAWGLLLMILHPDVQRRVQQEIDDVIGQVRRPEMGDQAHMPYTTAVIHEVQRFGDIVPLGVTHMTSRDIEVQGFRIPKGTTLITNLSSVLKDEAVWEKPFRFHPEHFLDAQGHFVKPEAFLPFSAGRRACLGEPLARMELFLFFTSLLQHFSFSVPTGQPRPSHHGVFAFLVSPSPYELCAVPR
CYP3A4, sequence (P08684 whole entry): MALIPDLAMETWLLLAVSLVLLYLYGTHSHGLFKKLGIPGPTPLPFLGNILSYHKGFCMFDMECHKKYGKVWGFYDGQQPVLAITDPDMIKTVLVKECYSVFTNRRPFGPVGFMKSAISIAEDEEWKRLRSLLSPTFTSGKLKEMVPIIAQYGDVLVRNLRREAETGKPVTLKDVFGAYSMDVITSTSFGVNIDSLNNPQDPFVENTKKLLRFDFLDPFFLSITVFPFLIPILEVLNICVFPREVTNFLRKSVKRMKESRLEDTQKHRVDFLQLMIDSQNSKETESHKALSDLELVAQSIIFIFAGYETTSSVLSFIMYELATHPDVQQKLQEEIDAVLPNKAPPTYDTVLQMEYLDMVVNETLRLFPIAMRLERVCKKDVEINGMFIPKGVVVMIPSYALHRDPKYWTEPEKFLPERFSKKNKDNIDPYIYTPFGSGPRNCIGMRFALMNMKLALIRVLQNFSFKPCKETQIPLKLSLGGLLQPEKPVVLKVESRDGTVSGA
T1 sequence (P33261 whole entry): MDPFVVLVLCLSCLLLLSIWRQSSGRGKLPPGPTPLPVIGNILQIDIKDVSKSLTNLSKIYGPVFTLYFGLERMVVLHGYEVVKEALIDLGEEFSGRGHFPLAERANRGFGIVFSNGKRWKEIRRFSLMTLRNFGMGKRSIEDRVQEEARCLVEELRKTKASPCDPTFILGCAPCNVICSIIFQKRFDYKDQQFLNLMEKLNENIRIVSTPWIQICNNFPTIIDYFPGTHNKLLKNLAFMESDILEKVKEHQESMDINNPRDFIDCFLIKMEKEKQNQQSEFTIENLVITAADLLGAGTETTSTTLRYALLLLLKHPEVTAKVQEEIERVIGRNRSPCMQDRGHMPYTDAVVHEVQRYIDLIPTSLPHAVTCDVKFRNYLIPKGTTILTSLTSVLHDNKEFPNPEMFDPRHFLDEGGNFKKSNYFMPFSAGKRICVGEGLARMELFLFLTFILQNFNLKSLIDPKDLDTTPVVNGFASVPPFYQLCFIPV
T4 sequence (P11712 whole entry): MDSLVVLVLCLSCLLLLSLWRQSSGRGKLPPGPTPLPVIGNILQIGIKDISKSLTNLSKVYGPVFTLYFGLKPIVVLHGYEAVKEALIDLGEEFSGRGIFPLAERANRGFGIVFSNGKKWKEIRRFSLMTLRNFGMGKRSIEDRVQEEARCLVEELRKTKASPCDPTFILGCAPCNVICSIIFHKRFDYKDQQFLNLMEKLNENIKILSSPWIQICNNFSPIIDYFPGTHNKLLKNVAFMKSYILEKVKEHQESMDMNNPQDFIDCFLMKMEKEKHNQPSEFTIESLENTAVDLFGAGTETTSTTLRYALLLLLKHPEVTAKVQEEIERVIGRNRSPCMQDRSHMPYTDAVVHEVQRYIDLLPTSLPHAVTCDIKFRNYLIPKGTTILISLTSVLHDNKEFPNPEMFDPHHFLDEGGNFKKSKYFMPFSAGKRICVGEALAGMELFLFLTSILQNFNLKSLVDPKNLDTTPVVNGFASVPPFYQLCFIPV

Compound	IC50 (human CYP2C19 [1]; [10])	Luciferase IC50 (half-maximal inhibitory concentration) [2]	IC50 (human CYP1A2 [3]; [11])	IC50 (human CYP2D6 [4]; [12])	CYP2C9 IC50 (half-maximal inhibitory concentration) (human CYP2C9 [5])	CYP3A4 IC50 (half-maximal inhibitory concentration) (CYP3A4)	Luciferase IC50 [2]	IC50 (human CYP1A2 [3]; CYP1A2 IC50)	IC50 (human CYP2D6 [4]; CYP2D6 IC50)	CYP3A4 IC50 (CYP3A4)	also measured
O=[N+]([O-])c1ccc2ccc3cccc4ccc1c2c34 [1-Nitropyrene]	14 µM	Inactive	0.27 µM	33 µM	Inactive	Inactive					CYP1A2 Efficacy (in parenthesis) (human CYP1A2 [6]): 0.27 ± 0.05 (-96 ± 5) %; CYP2C19 Efficacy (in parenthesis) (human CYP2C19 [7]): 14.04 ± 11.88 (-69 ± 19) %; CYP2D6 Efficacy (in parenthesis) (human CYP2D6 [8]): 33 ± 2.23 (-91 ± 22) %
CCCCC(CC)CNCC(CC)CCCC (centres unmarked) [2,2'-Diethylhexylamine]							Inactive	47.4 µM	0.31 µM	Inactive	IC50 (human CYP2C19 [1]; CYP2C19 IC50): 51.3 µM; CYP2C9 IC50 (human CYP2C9 [5]): Inactive
CCN(CC)CCCN(c1ccccc1)C1Cc2ccccc2C1 [Aprindine hydrochloride]							Inactive	22.2 µM	0.44 µM	Inactive	IC50 (human CYP2C19 [1]; CYP2C19 IC50): 41.3 µM; CYP2C9 IC50 (human CYP2C9 [5]): Inactive
CN1CC2c3ccccc3Oc3ccc(Cl)cc3C2C1 (centres unmarked) [Asenapine]							Inactive	7.55 µM	0.09 µM	Inactive	CYP2C9 IC50 (human CYP2C9 [5]): Inactive; CYP2C19 IC50 (human CYP2C19 [7]): Inactive
c1ccc2c(c1)-c1cccc3c1c-2cc1ccccc13 [Benzo(b)fluoranthene]								0.69 µM	30 µM	Inactive	IC50 (human CYP2C19 [1]; CYP2C19 IC50): 10.5 µM; IC50 [2]: 5.37 µM; CYP2C9 IC50 (human CYP2C9 [5]): Inactive
c1ccc2c(c1)c1cccc3ccc4cccc2c4c31 [Benzo(e)pyrene]							Inactive	0.1 µM	55.4 µM	Inactive	CYP2C9 IC50 (human CYP2C9 [5]): Inactive; CYP2C19 IC50 (human CYP2C19 [7]): Inactive
CN(Cc1cc(Br)cc(Br)c1N)C1CCCCC1 [Bromhexine hydrochloride]							Inactive			Inactive	IC50 (human CYP2C19 [1]): 4.36 µM; IC50 (human CYP1A2 [3]): 28.1 ± 9.38 µM; IC50 (human CYP2D6 [4]): 0.01 ± 0.01 µM; IC50 (human CYP2C9 [9]): 19.5 ± 6.96 µM
Cc1ccc(Cl)c(OCC(O)CNC(C)(C)C)c1 (centres unmarked) [Bupranolol]		Inactive	15.5 µM	0.98 µM	Inactive	Inactive					CYP2C19 IC50 (half-maximal inhibitory concentration) (human CYP2C19 [7]): Inactive
CCCCN(CCCC)CCCOC(=O)c1ccc(N)cc1 [Butacaine]	38.9 µM	Inactive	22.4 µM	0.03 µM		Inactive					IC50 (human CYP2C9 [9]; [13]): 26.4 µM
CN(Cc1ccc(C(C)(C)C)cc1)Cc1cccc2ccccc12 [Butenafine]							Inactive	24.6 µM	0.39 µM	Inactive	IC50 (human CYP2C19 [1]; CYP2C19 IC50): 9.91 µM; IC50 (human CYP2C9 [9]; CYP2C9 IC50): 16.3 µM
CC(C(O)c1ccccc1)N(C)C/C=C/c1ccccc1 (centres unmarked) [Cinnamedrine]		Inactive				Inactive					IC50 (human CYP2C19 [1]): 1.46 µM; IC50 (human CYP1A2 [3]): 16.4 µM; IC50 (human CYP2D6 [4]): 0.11 µM; IC50 (human CYP2C9 [9]): 16.1 µM
OC(c1ccc(Cl)cc1)(c1ccc(Cl)cc1)C(Cl)(Cl)Cl [Dicofol]	0.29 µM	Inactive	8.5 µM	44.8 µM		Inactive					IC50 (human CYP2C9 [9]; [13]): 4.89 µM; CYP2C9 Efficacy (in parenthesis) (human CYP2C9 [5]): 4.89 ± 4.11 (-104 ± 9) %; CYP1A2 Efficacy (in parenthesis) (human CYP1A2 [6]): 8.5 ± 4.94 (-106 ± 9) %; CYP2C19 Efficacy (in parenthesis) (human CYP2C19 [7]): 0.29 ± 0.44 (-153 ± 1) %; CYP2D6 Efficacy (in parenthesis) (human CYP2D6 [8]): 44.8 ± 22.68 (-69 ± 14) %
CCCCc1cc2ccccc2c(OCCN(C)C)n1 [Dimethisoquin hydrochloride]		Inactive			Inactive	Inactive					IC50 (human CYP2C19 [1]): 39.2 ± 6.35 µM; IC50 (human CYP1A2 [3]): 0.47 ± 0.03 µM; IC50 (human CYP2D6 [4]): 4.36 µM
CCN(CC)c1c([N+](=O)[O-])cc(C(F)(F)F)c(N)c1[N+](=O)[O-] [Dinitramine]	19.3 µM	Inactive	0.3 µM	55.8 µM		Inactive					IC50 (human CYP2C9 [9]; [13]): 74.5 µM
CCc1ccc(C2CCNCC2)cc1 [Enefexine]							Inactive			Inactive	IC50 (human CYP1A2 [3]): 23.2 µM; IC50 (human CYP2D6 [4]): 0.42 µM; CYP2C9 IC50 (human CYP2C9 [5]): Inactive; CYP2C19 IC50 (human CYP2C19 [7]): Inactive
c1ccc2c(c1)-c1cccc3cccc-2c13 [Fluoranthene]								0.73 µM	21.5 µM	Inactive	IC50 (human CYP2C19 [1]; CYP2C19 IC50): 50.2 µM; IC50 [2]: 62.1 µM; IC50 (human CYP2C9 [9]): 67.8 µM
COc1ccc(-c2coc3cc(O)ccc3c2=O)cc1 [Formononetin]	62.3 µM		14.4 µM	51.6 µM		Inactive					IC50 [2]: 3.18 µM; IC50 (human CYP2C9 [9]; [13]): 0.29 µM
CCN(CC)CCNc1ccc(CO)c2sc3ccccc3c(=O)c12 [Hycanthone]							Inactive	0.58 µM	3.77 µM	Inactive	CYP2C9 IC50 (human CYP2C9 [5]): Inactive; CYP2C19 IC50 (human CYP2C19 [7]): Inactive
CCn1ccnc1CC1COc2ccccc2O1 (centres unmarked) [Imiloxan]	4.42 µM	Inactive	25.3 µM	0.69 µM	Inactive	Inactive					
CN1[C@@H]2CC[C@H]1C[C@@H](OC(=O)c1cc(Cl)cc(Cl)c1)C2 [MDL 72222]		Inactive	14.6 µM	0.05 µM	Inactive	Inactive					CYP2C19 IC50 (half-maximal inhibitory concentration) (human CYP2C19 [7]): Inactive
CCCC(Cn1cncn1)c1ccc(Cl)cc1Cl (centres unmarked) [Penconazole]	0.14 µM	Inactive	23.6 µM	43.5 µM		Inactive					IC50 (human CYP2C9 [9]; [13]): 5.66 µM; CYP2C9 Efficacy (in parenthesis) (human CYP2C9 [5]): 5.66 ± 0.65 (-101 ± 4) %; CYP1A2 Efficacy (in parenthesis) (human CYP1A2 [6]): 23.57 ± 4.24 (-101 ± 7) %; CYP2C19 Efficacy (in parenthesis) (human CYP2C19 [7]): 0.14 ± 0.02 (-137 ± 5) %; CYP2D6 Efficacy (in parenthesis) (human CYP2D6 [8]): 43.51 ± 17.21 (-88 ± 16) %
CC(COc1ccccc1)N(CCCl)Cc1ccccc1 (centres unmarked) [Phenoxybenzamine hydrochloride]	2.44 µM	Inactive	65.8 µM	0.38 µM		Inactive					IC50 (human CYP2C9 [9]; [13]): 22.8 µM
COc1ccc(CN(CCN(C)C)c2ccccn2)cc1 [Pyrilamine maleate]	15.8 µM	Inactive	62.7 µM	0.18 µM	Inactive	Inactive					
CCN(CC)CCCC(C)Nc1c2ccc(Cl)cc2nc2ccc(OC)cc12 (centres unmarked) [Quinacrine]							Inactive	2.2 µM	0.18 µM	Inactive	CYP2C9 IC50 (human CYP2C9 [5]): Inactive; CYP2C19 IC50 (human CYP2C19 [7]): Inactive
COc1ccc(CN(CCN(C)C)c2ncccn2)cc1 [Thonzylamine hydrochloride]	15.7 µM	Inactive	18.5 µM	0.7 µM	Inactive	Inactive					
CN(C)CCCN1c2ccccc2Sc2ccc(C(F)(F)F)cc21 [Triflupromazine hydrochloride]	7.62 µM	Inactive	3.52 µM	0.55 µM	Inactive	Inactive					
CN(C)CCN(Cc1ccccc1)c1ccccn1 [Tripelennamine citrate]	35.7 µM	Inactive	26.5 µM	0.2 µM	Inactive	Inactive					
CS(=O)(=O)c1ccc(-c2cn3ccccc3n2)cc1 [Zolimidine]								0.7 µM	24.2 µM	Inactive	IC50 (human CYP2C19 [1]; CYP2C19 IC50): 25.7 µM; IC50 [2]: 6.95 µM; IC50 (human CYP2C9 [9]; CYP2C9 IC50): 24.1 µM
